Key:
[1] = tested on: AML12 cells; assay: [2H7]glucose consumption, lactate isotopomer and HDO production in cell media by 1H/2H-NMR; assay type: cell-based; settings: for concentration of consumed [2H7]glucose / produced lactate isotopomers and HDO in cell media: 5.5 mM [2H7]glucose; for number of μmol of 2H: 2H mass balance
Procedure: (§1) HUH-7 or AML12 cell lines were cultured in a complete growth medium made up of Dulbecco's Modified Eagle Medium (DMEM) with 10% v/v FBS, 10,000 units/mL penicillin, 10,000 μg/mL streptomycin, 25 μg/mL amphotericin B and 5.5 mM [^2H7]glucose. Cell lines were maintained at 37° C. in a 5% CO2 in air atmosphere in an air-jacketed incubator (Heracell Vios 160i, Thermo Scientific, Waltham, Mass.). Growth media was replaced every 3 days, and subcultured 1:5 at 80% confluence. 25 cm^2 cell culture plates, containing 15 million HUH-7 or AML12 cells at 70-80% confluence, were washed once with warm PBS and incubated with 4 mL each of DMEM with deuterated tracer for 5h, withdrawing 100 μL aliquots at 20 min, 1h, 2h, and 5h.
(§2) No extraction was performed on the cell media samples. Pyrazine and pyrazine-D4 were mixed to achieve 5 mM concentration of each of the standards in each cell media samples of HUH-7 and AML12 cells. Pyrazine and pyrazine-D4 served as an internal standard to quantify the lactate isotopomers from ^1H-NMR data and HDO as well as residual [^2H7]glucose from ^2H-NMR data respectively. 40 μL of cell medium was transferred into 1.7 mm NMR tubes for NMR analysis. ^1H-NMR Spectroscopy
(§3) All NMR spectra were recorded on a 600.23 MHz NMR, equipped with a 1.7 mm TCI CryoProbe and Avance Neo Console (Bruker Biospin). All NMR experiments were set up in the lock off followed by sweep off mode. ^2H-decoupling off and on ^1H-NMR spectra were acquired with a sequence that alternated decoupling with each scan. Relaxation delay (d1) of 1.5s and acquisition time (AQ) of 2s (3.5s of recycling time, Tr) and a 90° pulse of 10.50 μs was used for acquisition of each of the spectra. The WET method containing selective pulses was applied on the strong water resonance (M o, H. & Raftery, D. J. Biomol. NMR 2008 41:105-111). Waltz16 ^2H-decoupling sequence consists of 90° pulse of 250 μs with decoupling power of 1.72watts, producing B, of 1 kHz during the acquisition period. 13,157 complex data points were acquired with the spectral width of 11 ppm. 128 scans were used to acquire each spectrum. 4 dummy scans were also used for equilibration of the spin states prior to acquisition. A modified T1 inversion recovery pulse sequence with ^2H-decoupling on during the acquisition was used to measure the T1 of the lactate isotopomers and pyrazine standard. Relaxation delay (d1) of 50s and inversion recovery delays (T) of 0.001, 0.6, 0.9, 1.5, 2.0, 3.0, 6.0, 9.0, 14.0, 20.0, 30.0 and 40.0s were used to determine the T1 of lactate isotopomers.
(§4) The deuterium lock channel was used to acquire the ^1H-decoupled ^2H-NMR spectrum at 92.13 MHz resonant frequency. Relaxation delay (d1) of 2s and acquisition time (AQ) of 1s (3s of recycling time, Tr) with a 90° pulse was used to acquire each of the ^2H-NMR spectra. 1086 complex data points were digitized with the spectral width of 11 ppm using 1024 scans for each of the 5 FIDs (5120 scans) for each of the samples. T1 inversion recovery pulse sequence was used to calculate the T1 relaxation times of HDO and pyrazine-D4 standard. Relaxation delay (d1) of 5s, acquisition time (AQ) of 1s and inversion recovery delays (T) of 0.001, 0.1, 0.4, 0.8, 1.6, and 3.2s were used to acquire an array of FIDs to calculate the T1 of HDO and pyrazine-D4. All NMR experiments were carried out at the room temperature (25° C.). ^1H-NMR Data Processing and Quantification of Lactate Isotopomers
(§5) For processing of the ^1H-NMR spectrum, the spectra were zero-filled to 32,768 points with an exponential window function of 0.3 Hz before the Fourier Transform (FT). Manual phase and automatic spline baseline correction were performed on each of the spectra. ^2H-decoupled ^1H-NMR spectra of each time point were used for the extraction of the areas of lactate isotopomers. The MestReNova line fitting tool was used to extract the peak areas of the slightly overlapped signals for quantification of the lactate isotopomers. […]

[2] = tested on: HUH-7 hepatocellular carcinoma cells; assay: as above; assay type: cell-based; settings: for concentration of consumed [2H7]glucose / produced lactate isotopomers and HDO in cell media: 5.5 mM [2H7]glucose; for number of μmol of 2H: 2H mass balance; for rate of production of lactate isotopomer: efflux into medium, linear regression over incubation time
Procedure: as §1, §2, §3, §4, §5

[3] = T1 inversion recovery NMR of lactate isotopomers, HDO and standards in cell media; assay type: physicochemical; settings: 25° C., cell medium; for deuterium T1 relaxation time: 2H-NMR 92.13 MHz; for proton T1 relaxation time: 1H-NMR 600.23 MHz, 2H-decoupling on
Procedure: as §3, §4
Once the lactate isotopomers were identified, it would be expected to observe differential changes in T1 due to a loss of ^1H dipolar relaxation. T1 inversion recovery experiments were performed in the ^2H-decoupling on mode to calculate the T1 relaxation time of the pyrazine and lactate isotopomers. […] A and B marks on the uppermost spectrum represent the pyrazine standard and methyl signals of the lactate isotopomers respectively. Integral areas of each of the lactate isotopomers and pyrazine standard were extracted to calculate the T1 relaxation times. Data was fit to the standard T1 equation, Mz(t)=M0(1-2*^T/T1), to extract the T1s. […] T1 relaxation time of the HDO and pyrazine-D4 standard were calculated using the inversion recovery ^2H-NMR data (FIG. 10) and found to be 0.49s and 0.45s respectively.

[4] = tested on: rat brain; assay: Deuterium MR spectroscopy of rat brain and plasma 2H NMR after tail vein infusion of [2H7]glucose
Excerpt: All experimental procedures were approved by the University of Florida Institutional Animal Care and Use Committee. Female Sprague Dawley rats (body weight: ˜220 g) were purchased from Jackson Laboratories and acclimatized in the University's animal care facilities. All rats were in the fed state. The rat was anesthetized with 2% isoflurane in a mixture of O2 and N2 gases. The tail vein was catheterized using a 23-gauge needle for the infusion of [^2H7]glucose tracer. The body temperature of the rat was maintained at 37° C. using a heated circulating water pad. The respiratory rate was monitored during the entire period of the experiment. After shimming the magnet, three baseline ^2H spectra were acquired. Subsequently, a 2 minute tail vain infusion of [^2H7]glucose (1.95 g/kg body weight and dissolved in 2.3 mL saline) was administered. Blood was drawn after the end of spectroscopy and imaging experiments via saphenous vein and blood plasma was separated by centrifugation of the blood at 4° C. for 10 minutes. Circulating blood glucose was assessed by a blood draw and glucometer (Evancare, Medline Industries, Northfield, IL) prior to infusion and 3 hours after the glucose injection.
Animal experiments were performed on an 11.1 T Magnex magnet (Magnex Scientific Ltd.) interfaced to a BrukerAvance Ill HD console running on ParaVision 6.0.1 (Bruker Instruments, Billerica, Mass.). The MRI system was equipped with RRI BFG-240/120-S6 gradient coil with the bore size of 120 mm and capable of producing 100 mT/m with 200 μs rise time. A shim map was generated for localized shimming on rat brain using an 85 mm home-built, actively-decoupled, linear volume ^1H transmit-receive coil. The coil was tuned to the ^1H NMR frequency at 470 MHz. A home-built 14 mm diameter, circular surface coil tuned to 72.26 MHz was used to acquire ^2H spectra and images.
The ^2H coil was placed over the rat head and a 3D printed phantom containing approximately 200 μl of natural abundance water was placed on the top of the coil to confirm positioning. The ^2H RF pulse and flip angle were optimized to maximize the ^2H signals from the rat brain. A partial signal contribution from the natural abundance ^2H of the water phantom was unavoidable but was accounted for by subtraction of the signal areas from runs that followed the glucose injection. […] Spectra were acquired with a 1 kHz width and 256 data points for each free induction decay (FID), a repetition time of 300 ms, and a flip angle of 60° with 256 averages. The total acquisition time for each spectrum was 1.28 minutes. A total of 30 spectra were acquired for a 38-minute time period. Two additional ^2H NMR spectra from the rat brain were acquired at 2 hours and 2.5 hours following [^2H7]glucose infusion. Pyrazine-D4 (2.5 mM, internal standard) was added in each plasma sample to calculate the HDO concentration in plasma. ^2H NMR spectra were collected on Bruker 14 T NMR magnet system equipped with a 1.7 mm TCl CryoProbe and Avance Neo console (Bruker BioSpin). ^2H NMR spectra of plasma samples were acquired at 92.13 MHz resonant frequency with an acquisition time of 1.0 s, relaxation delay of 2 s, and 3072 scans.
^2H NMR data analysis was performed using MestReNova v14.0.1-23284 (Mestrelab Research S. L., Santiago, Spain). For processing of the ^2H NMR, each spectrum was Fourier transformed with an exponential window function of 2.0 Hz, zero-filling of 512 data points and automatic phase correction was also applied. Peak areas were extracted for HDO, [^2H7]glucose including the anomeric signal, deuterated glx (glutamate/glutamine) and lactate from the ^2H NMR spectra of the rat brain. 2D ^1H and ^2H images were processed in the ImageJ software (NIH, Bethesda, Md.).

Compound | proton T1 relaxation time [3] | concentration of consumed [2H7]glucose / produced lactate isotopomers and HDO in cell media ([1]; 5 hour time point) | number of μmol of 2H ([1]; 5 hour time point) | concentration of consumed [2H7]glucose / produced lactate isotopomers and HDO in cell media ([2]; 5 hour time point) | number of μmol of 2H ([2]; 5 hour time point) | rate of production of lactate isotopomer [2] | also measured
[2H]O [HDO, hydrogen-deuterium oxide] | – | 2003.12 µmol/L | 2003.12 µmol | 18240.0 µmol/L | 18240.0 µmol | – | deuterium T1 relaxation time [3]: 0.49 s; final body water HDO enrichment ([4]; rat blood plasma at end of experiment, n=4): 86.9 ± 5.16 mM; final estimated HDO concentration in brain ([4]; rat brain, longer time points (2.5 hrs) post-[2H7]glucose infusion, N=3): approximately 48±10 mM; final HDO signal relative to natural abundance signal ([4]; rat brain, longer time points post-infusion): approximately 3.5 ×; time range of pseudo-steady state of HDO (and HDO plus lactate) to glx ratios ([4]; rat brain, post-[2H7]glucose infusion): 10 to 24 min; body water enrichment of HDO relative to brain concentration ([4]; rat, final time point): approximately 1.8 ×
CC(O)C(=O)O (stereo not drawn) [lactate-CH3] | 1.85 s | – | – | – | – | 0.17 micromol/10^6 cells/min | –
c1cnccn1 [pyrazine, Pyrazine, reference compound] | 6.45 s | – | – | – | – | – | –
[2H]c1nc([2H])c([2H])nc1[2H] [pyrazine-D4, Pyrazine-D4, reference compound] | – | – | – | – | – | – | deuterium T1 relaxation time [3]: 0.45 s
[1,2,3,4,5,6,6-^2H7]-D-glucose [[^2H7]glucose, reference compound] | – | 586.52 µmol/L | 4105.60 µmol | 3650.0 µmol/L | 25550.0 µmol | – | Number of μmol of 2H in 2H-lactate & HDO ([1]; 5 hour time point, sum): 2938.52 µmol; [2H7]glucose uptake and HDO and 2H-lactate production compared to HUH-7 ([1]; qualitative): much lower; 2H atoms of [2H7]glucose incorporated into 2H-lactate and HDO ([2]; 2H mass balance at 5 hour time point): Approximately 96%; Number of μmol of 2H in 2H-lactate & HDO ([2]; 5 hour time point, sum): 24644.9 µmol; cellular [2H7]glucose uptake and HDO production rate compared to AML12 cells ([2]; qualitative, stacked 2H-NMR spectra): very high; fate of the glucose bolus in brain ([4]; rat, in vivo): almost completely metabolized; time of peak delivery of [2H7]glucose into the brain ([4]; rat, in vivo): approximately 10 minutes post infusion; final blood glucose concentration ([4]; rat, 3 hours after injection of 1.95 g/kg [2H7]glucose, n=4): 7.1 ± 1.8 mM

Further lines, with some results ahead:

proton T1 relaxation time [3] | Compound | concentration of consumed [2H7]glucose / produced lactate isotopomers and HDO in cell media ([1]; 5 hour time point) | number of μmol of 2H ([1]; 5 hour time point) | concentration of consumed [2H7]glucose / produced lactate isotopomers and HDO in cell media ([2]; 5 hour time point) | number of μmol of 2H ([2]; 5 hour time point) | rate of production of lactate isotopomer [2] | also measured
2.49 s | [2H]CC(O)C(=O)O (stereo not drawn) [Lactate-CH2D] | 229.26 µmol/L | 229.26 µmol | 1520.0 µmol/L | 1520.0 µmol | 0.35 micromol/10^6 cells/min | –
4.21 s | [2H]C([2H])C(O)C(=O)O (stereo not drawn) [Lactate-CHD2] | 353.07 µmol/L | 706.14 µmol | 2442.47 µmol/L | 4884.9 µmol | 0.57 micromol/10^6 cells/min | concentration of lactate-CHD2 relative to the -CH2D isotopomer ([2]; 5 hour time point): 1.6 fold

Reference: patent US20230126411A1, “DEUTERIUM MAGNETIC RESONANCE IMAGING” (University of Florida Research Foundation, Inc., priority 2020, published 2023)
